Measurements: ChEMBL document CHEMBL1155550, “Rationale design of biotinylated antimalarial endoperoxide carbon centered radical prodrugs for applications in proteomics” (J Med Chem, 2010)

System: Plasmodium falciparum
Test: Antiplasmodial activity against chloroquine-sensitive Plasmodium falciparum 3D7 infected in human erythrocytes assessed as inhibition of [3H]hypoxanthine incorporation after 48 hrs by liquid scintillation counting; call rule not given here
Assay type: functional, organism-based
[1] = Plasmodium falciparum, 3D7, read-out: IC50

## OCC12CC3CC(C1)[C@]1(OO[C@]4(CCCCC4)O1)C(C3)C2
[1]
  IC50: 8.4 nM

## CC(C)(C)OC(=O)NCc1cccc(CNC(=O)C23CC4CC(C2)[C@]2(OO[C@]5(CCCCC5)O2)C(C4)C3)c1
[1]
  IC50: 5.1 nM

## O=C(NCc1cccc(CNC(=O)C23CC4CC(C2)[C@]2(OO[C@]5(CCCCC5)O2)C(C4)C3)c1)OCC1c2ccccc2-c2ccccc21
[1]
  IC50: 27 nM

## O=C(NCCCC[C@H]1SC[C@H]2NC(=O)N[C@H]21)NCc1cccc(CNC(=O)C23CC4CC(C2)[C@]2(OO[C@]5(CCCCC5)O2)C(C4)C3)c1
[1]
  IC50: 2.4 nM

## C[C@H]1[C@@H](CC(=O)NCc2cccc(CNC(=O)c3ccc(S(=O)(=O)NC(=O)CCCC[C@@H]4SC[C@@H]5NC(=O)N[C@@H]54)cc3)c2)O[C@@H]2O[C@]3(C)CC[C@H]4[C@H](C)CC[C@@H]1[C@@]24OO3
[1]
  IC50: > 1000 nM

## C[C@H]1[C@@H](CC(=O)NCc2cccc(CNC(=O)CCSSCCNC(=O)CCCC[C@@H]3SC[C@@H]4NC(=O)N[C@@H]43)c2)O[C@@H]2O[C@]3(C)CC[C@H]4[C@H](C)CC[C@@H]1[C@@]24OO3
[1]
  IC50: 91 nM

## O=C(O)C12CC3CC(C1)[C@]1(OO[C@]4(CCCCC4)O1)C(C3)C2
[1]
  IC50: 150 nM

## COC(=O)C12CC3CC(C1)[C@]1(OO[C@]4(CCCCC4)O1)C(C3)C2
[1]
  IC50: 5.7 nM

## O=C(CCCC[C@@H]1SC[C@@H]2NC(=O)N[C@@H]21)NS(=O)(=O)c1cccc(CNC(=O)C23CC4CC(C2)[C@]2(OO[C@]5(CCCCC5)O2)C(C4)C3)c1
  IC50: Not Active

## C[C@H]1[C@@H](CCOC(=O)NCCCCC[C@@H]2SC[C@@H]3NC(=O)N[C@@H]32)O[C@@H]2O[C@]3(C)CC[C@H]4[C@H](C)CC[C@@H]1[C@@]24OO3
[1]
  IC50: 1.6 nM
